Data on 10 compounds can be found in paper PMC7999702, “Bioactive Bromotyrosine Derivatives from the Pacific Marine Sponge Suberea clavata (Pulitzer-Finali, 1982)” (Marine Drugs, 2021).

Series [1] concerns the target T1, Acetylcholinesterase from Electrophorus electricus (Electrophorus electricus, UniProt O42275).
T1 construct: purchased Sigma-Aldrich
The series is described as follows: biochemical. It counts as biochemical. As to the method: This bioassay was set up after Ellman. This method is the most commonly used to screen compounds against this target. All reagents, buffers, and salts were purchased from Sigma-Aldrich (Saint-Louis, MO, USA). Two buffer solutions were prepared extemporaneously: buffer A (50 mM Tris-HCl pH 8 + 0.1% BSA); and buffer B (50 mM Tris-HCl pH 8 + 0.1 M NaCl + 0.02 M MgCl2.6H2O). Acetylcholinesterase from Electrophorus electricus (EC 3.1.1.7, AChE−0.2 U/mL) was dissolved in buffer A, 5,5′-dithiobis-2-nitrobenzoic acid (DTNB-Ellman’s reagent−3 mM) in buffer B, and acetylthiocholine iodide (ACTI−6 mM) in H2O. Tested compounds were dissolved in DMSO at 10 mg/mL, stored at −20 °C, and subsequently 100 times diluted in H2O before the assay. 10 μL AChE was preincubated for 10 min with 70 μL DTNB and 10 μL compounds solution in 96-well microplates. The enzymatic reaction was initiated with the addition of 10 μL ACTI, a synthetic substrate of AChE. After 30 min at 25 °C, absorbance of the plate was measured at 405 nm using a microplate reader (Tecan Infinite M200). Percentage of inhibition was calculated using the following equation: 100 × (Acontrol − Asample)/(Acontrol − A0), where Acontrol is the average absorbance of the wells in which tested compounds were replaced by water, Asample is the absorbance of the well with tested compound, and A0 the average absorbance of blank wells where AChE was omitted. Products leading to 50% inhibition of AChE were then submitted to dose-response experiments. Serial dilutions of the products were prepared (100, 50, 25, 12.5, 6.25, 3.125, 1.5625, and 0.78125 µg/mL). Enzymatic assay was performed according to the same procedure with 10 µL of each concentration added. IC50 values (concentration leading to 50% inhibition of enzymatic activity) were graphically determined by plotting the percentage of inhibition against the compound concentrations.
Each assay was performed in triplicate and results are expressed as mean values ± SD.

The next series concerns Halomonas aquamarina. The series is described as follows: Antibacterial bioassay, inhibition of bacterial growth (MIC). It counts as cell-based, Halomonas aquamarina (ATCC 14400). To be noted: for MIC: Vreelandella aquamarina, read-out: MIC Halomonas aquamarina; for MIC / MIC Halomonas aquamarina: 48 h; for MIC toward Halomonas aquamarina: the lowest concentration tested. As to the method: (§1) Preparation of the compounds: antifouling efficiency of the compounds was assessed towards the inhibition of growth of key bacteria involved in marine and terrestrial surface colonisation. All bioassays were run in six replicates and using two batches of organisms. Compounds were tested at 0.01, 0.1, and 1 µg/mL. 96 well-plates were used and were coated with the compounds. Methanol was used as a carrier solvent and after its evaporation plates were sterilized under UV exposure for 30 min [41].
(§2) Seven strains of marine bacteria i.e., Halomonas aquamarina (ATCC 14400), Polaribacter irgensii (ATCC 700398), Shewanella putrefaciens (ATCC 8071), Roseobacter littoralis (ATCC 495666), Pseudoalteromonas elyakovii (ATCC 700519), Vibrio aestuarianus (ATCC 35048), Vibrio natriegens (ATCC 14058), and three strains of terrestrial bacteria, i.e., Escherichia coli (ATCC 11775), Staphylococcus aureus (ATCC 126000), and Pseudomonas aeruginosa (ATCC 16145) were used to assess the antibacterial potency of the compounds.
(§3) Inhibition of bacterial growth: experiments were run as previously described by Maréchal et al.. 96-well plates containing the compounds were inoculated with the bacteria (2 × 10^8 cells/mL) in LB medium ([…], Sigma, Andover, UK), (supplemented with NaCl (35 g/L) for marine strains), at 30 °C for 48 h. After incubation, the intensity of growth in the presence of the tested compounds and control (media only) was assessed by measurement of the OD 620 nm using a spectrophotometer (Apollo LB912, Berthold Technologies). Results are expressed as minimum inhibitory concentrations (MIC values).

The test system of another series is Escherichia coli. The description is as above. Format: cell-based, Escherichia coli (ATCC 11775). To be noted: for MIC: Escherichia coli. The procedure: as §1, §2, §3
For the next series, the system named is Roseobacter littoralis. The description is as above. Format: cell-based, Roseobacter littoralis (ATCC 495666). Conditions: 48 h; for MIC: read-out: MIC Roseobacter littoralis. As to the method: as §1, §2, §3
For another series, the system named is Vibrio aesturianus. Described as above. Format: cell-based, Vibrio aestuarianus (ATCC 35048). To be noted: for MIC: Vibrio. As to the method: as §1, §2, §3
Series [2] in a line: Degradation of 11-epi-fistularin-3 in acetonitrile/water (+0.1% HCOOH). It counts as physicochemical. To be noted: acetonitrile/water (+0.1% HCOOH) 1/1, room temperature, two weeks; HPLC analysis.
From the text: We then decided to manage the degradation process of epi-fistularin-3 (1) in a less drastic conditions by dissolving it in a mixture of acetonitrile/water (+0.1% HCOOH) 1/1 and stirring at room temperature for two weeks. The reaction mixture was then dried under vacuum and chromatographed.
The reaction mixture was then dried under vacuum and submitted for HPLC analysis.
The target of a further series is T2, DNMT1 (Homo sapiens, UniProt P26358).
T2 construct: purchased Active Motif
The series is described as follows: In vitro DNMT1 activity inhibition assay. It counts as biochemical. To be noted: compounds at 50 µM, 25 ng purified DNMT1, 2 h, 37 °C, three independent experiments. As to the method: DNMT1 activity was measured using in vitro DNMT activity/inhibition assay (Active Motif, Rixensart, Belgium) according to manufacturer’s instructions. All compounds were used at a final 50 µM concentration. The methylation reaction was performed by incubating 25 ng of purified DNMT1 with compounds for 2 h at 37 °C in the presence of 0.01% Triton X-100. The methylated DNA was then recognized by the His-tagged methyl-CpG binding domain protein 2b. The addition of a poly-histidine antibody conjugated to horseradish peroxidase provided a colorimetric readout quantified with a spectrophotometer (SpectraCount, Packard) at the wavelength of 450 nm. Data of DNMT1 activity are reported as percentage of control.

The mark [3] stands for this setting: mean ± SD, triplicate, 30 min at 25 °C, absorbance 405 nm, read-out: Acetylcholinesterase IC50.
Setting [4] is: tested at 0.01, 0.1 and 1 µg/mL, 30 °C, OD 620 nm.
Setting [5] is: tested at 0.01, 0.1 and 1 µg/mL, 30 °C, 48 h, OD 620 nm, read-out: MIC Escherichia coli.
Setting [6] is: tested at 0.01, 0.1 and 1 µg/mL, 30 °C, 48 h, OD 620 nm, read-out: MIC Vibrio aesturianus.
[7] abbreviates: tested at 0.01, 0.1 and 1 µg/mL, 30 °C, 48 h, OD 620 nm.

Converted amounts (≈) assume the structure as drawn. Where two headings read alike, the source gives them in different places.

T1 sequence (O42275 24-633): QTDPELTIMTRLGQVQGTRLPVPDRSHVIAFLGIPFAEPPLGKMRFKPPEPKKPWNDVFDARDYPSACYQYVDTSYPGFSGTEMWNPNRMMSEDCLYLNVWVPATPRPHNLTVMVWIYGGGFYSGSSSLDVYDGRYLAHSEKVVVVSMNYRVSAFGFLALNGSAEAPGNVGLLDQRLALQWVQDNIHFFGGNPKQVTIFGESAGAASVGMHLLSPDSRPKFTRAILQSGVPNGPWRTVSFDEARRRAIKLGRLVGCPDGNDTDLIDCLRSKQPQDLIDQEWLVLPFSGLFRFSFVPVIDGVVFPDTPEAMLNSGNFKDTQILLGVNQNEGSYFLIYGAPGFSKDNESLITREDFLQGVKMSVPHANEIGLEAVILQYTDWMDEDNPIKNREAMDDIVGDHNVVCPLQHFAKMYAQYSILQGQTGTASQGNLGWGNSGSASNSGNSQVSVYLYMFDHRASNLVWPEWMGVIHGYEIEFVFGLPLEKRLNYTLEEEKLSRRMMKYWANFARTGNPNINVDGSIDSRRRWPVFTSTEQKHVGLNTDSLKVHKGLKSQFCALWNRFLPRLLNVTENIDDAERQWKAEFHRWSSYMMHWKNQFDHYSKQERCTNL
T2 sequence (P26358 whole entry): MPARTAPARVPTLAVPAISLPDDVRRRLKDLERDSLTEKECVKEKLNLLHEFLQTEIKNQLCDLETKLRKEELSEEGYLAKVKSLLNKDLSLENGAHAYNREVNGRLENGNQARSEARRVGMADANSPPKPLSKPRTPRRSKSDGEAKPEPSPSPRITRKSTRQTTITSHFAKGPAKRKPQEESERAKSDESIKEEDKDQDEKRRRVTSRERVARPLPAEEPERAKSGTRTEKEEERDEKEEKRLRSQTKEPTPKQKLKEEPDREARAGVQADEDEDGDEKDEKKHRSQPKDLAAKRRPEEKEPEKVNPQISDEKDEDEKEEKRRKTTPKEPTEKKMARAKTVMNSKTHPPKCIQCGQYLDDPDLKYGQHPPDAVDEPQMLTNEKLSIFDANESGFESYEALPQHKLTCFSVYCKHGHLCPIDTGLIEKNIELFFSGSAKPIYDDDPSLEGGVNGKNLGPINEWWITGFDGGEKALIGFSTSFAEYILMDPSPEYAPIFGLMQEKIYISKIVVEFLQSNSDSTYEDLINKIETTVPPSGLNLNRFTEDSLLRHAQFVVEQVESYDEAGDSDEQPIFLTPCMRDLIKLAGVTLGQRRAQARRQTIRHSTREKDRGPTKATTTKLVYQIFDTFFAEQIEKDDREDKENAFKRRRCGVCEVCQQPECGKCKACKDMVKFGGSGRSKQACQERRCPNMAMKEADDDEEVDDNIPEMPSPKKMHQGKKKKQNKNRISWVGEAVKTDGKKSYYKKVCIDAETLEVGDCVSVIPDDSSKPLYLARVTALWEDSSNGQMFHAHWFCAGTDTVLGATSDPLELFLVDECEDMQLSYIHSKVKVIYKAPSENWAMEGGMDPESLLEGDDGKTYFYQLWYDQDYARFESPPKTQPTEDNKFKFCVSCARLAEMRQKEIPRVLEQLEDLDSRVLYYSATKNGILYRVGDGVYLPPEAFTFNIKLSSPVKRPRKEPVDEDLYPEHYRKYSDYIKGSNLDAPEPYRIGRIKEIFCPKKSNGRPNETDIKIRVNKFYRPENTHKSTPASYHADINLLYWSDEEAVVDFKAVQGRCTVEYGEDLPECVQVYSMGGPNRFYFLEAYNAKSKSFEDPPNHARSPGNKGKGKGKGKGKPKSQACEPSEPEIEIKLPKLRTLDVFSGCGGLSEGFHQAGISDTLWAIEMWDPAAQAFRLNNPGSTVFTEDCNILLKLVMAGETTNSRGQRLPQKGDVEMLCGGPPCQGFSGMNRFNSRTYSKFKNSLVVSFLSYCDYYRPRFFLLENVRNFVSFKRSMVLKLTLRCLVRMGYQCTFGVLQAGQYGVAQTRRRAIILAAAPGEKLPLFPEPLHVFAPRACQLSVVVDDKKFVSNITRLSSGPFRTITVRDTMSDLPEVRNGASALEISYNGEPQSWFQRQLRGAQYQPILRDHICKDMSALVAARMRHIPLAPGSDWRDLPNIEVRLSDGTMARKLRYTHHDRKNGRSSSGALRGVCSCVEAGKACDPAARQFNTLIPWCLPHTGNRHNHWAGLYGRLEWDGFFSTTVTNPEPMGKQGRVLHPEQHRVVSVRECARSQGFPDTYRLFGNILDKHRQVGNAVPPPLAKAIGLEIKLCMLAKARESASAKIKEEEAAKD

A word on the IC50: it is the concentration needed to halve the response being measured. In general, MIC refers to the smallest concentration in the dilution series that meets the test's criterion for growth inhibition. With `COC1=C(Br)[C@H](O)[C@@]2(C=C1Br)CC(C(=O)NCCc1cc(Br)c(OC[C@H](O)CNC(=O)C3=NO[C@]4(C=C(Br)C(OC)=C(Br)[C@@H]4O)C3)c(Br)c1)=NO2` [17-deoxy-11-epi-fistularin-3 (10), 17-deoxy-11(R)-epi-fistularin-3], in series [1] (setting [3]), the IC50 was above 10 µM. The minimum inhibitory concentration (MIC) was 0.01 µM (≈ 0.011 µg/mL) in the series with Halomonas aquamarina (setting [4]), above 1 µM in the series on Escherichia coli (setting [5]), above 1 µM in the series with Roseobacter littoralis (setting [4]) and above 1 µM in the series with Vibrio aesturianus (setting [6]).
As to `COC1=C(Br)[C@H](O)[C@@]2(C=C1Br)CC(C(=O)NC[C@@H](O)COc1c(Br)cc([C@H](O)CNC(=O)/C(Cc3cc(Br)c(OC)c(Br)c3O)=N/O)cc1Br)=NO2` [suberein-1 (2), suberein-1], the IC50 in series [1] (setting [3]) was above 10 µM. In addition, the minimum inhibitory concentration (MIC) in the series on Halomonas aquamarina (setting [4]) is above 1 µM; in the series with Escherichia coli (setting [5]), above 1 µM; in the series with Roseobacter littoralis (setting [4]) it was 1 µM (≈ 1.11 µg/mL); in the series on Vibrio aesturianus (setting [6]), 0.01 µM.
As for `COC1=C(Br)[C@H](O)[C@@]2(C=C1Br)CC(C(=O)NC[C@@H](O)COc1c(Br)cc([C@H](O)CNC(=O)C3=NO[C@]4(C=C(Br)C(OC)=C(Br)[C@@H]4O)C3)cc1Br)=NO2` [epi-fistularin-3 (1), 11-epi-fistularin-3], the “stability in acidic aqueous acetonitrile (degradation products)” value in series [2] is “gave agelorin A, agelorin B, and the compounds 2–7”. Besides, the IC50 in series [1] (setting [3]) was above 10 µM. In addition, the MIC with Halomonas aquamarina (setting [4]), with Escherichia coli (setting [5]), in the series on Roseobacter littoralis (setting [4]) and in the series with Vibrio aesturianus (setting [6]) was above 1 µM throughout. The remaining activity at 50 µM at DNMT1 (read-out: DNMT1 activity, percentage of control) was around 70%.
As for agelorin A [agelorin A (11)], in the series on Halomonas aquamarina (setting [4]), the “MIC Halomonas aquamarina” value amounted to 0.1 µg/mL. Further, the “MIC Roseobacter littoralis” value against Roseobacter littoralis (setting [4]) was determined as 0.1 µg/mL. Besides, the “MIC Vibrio aesturianus” value in the series with Vibrio aesturianus (setting [7]) amounted to 0.1 µg/mL.
`COC1=C(Br)[C@H](O)[C@@]2(C=C1Br)CC(C(=O)NCC(=O)c1cc(Br)c(OC[C@H](O)CNC(=O)C3=NO[C@]4(C=C(Br)C(OC)=C(Br)[C@@H]4O)C3)c(Br)c1)=NO2` [17-oxo-11-epi-fistularin-3 (8), 17-oxo-11-epi-fistularin-3] registered an IC50 in series [1] above 10 µM. In addition, the MIC in the series with Halomonas aquamarina is above 1 µM; with Escherichia coli (48 h, read-out: MIC Escherichia coli), above 1 µM; in the series with Roseobacter littoralis, above 1 µM; in the series on Vibrio aesturianus (48 h, read-out: MIC Vibrio aesturianus) it was 0.01 µM.
As for agelorin B [agelorin B (12)], the “MIC Halomonas aquamarina” value against Halomonas aquamarina (setting [4]) is given as above 1 µg/mL. Further, the “MIC Escherichia coli” value against Escherichia coli (setting [7]) was above 1 µg/mL. Also, in the series with Roseobacter littoralis (setting [4]), the “MIC Roseobacter littoralis” value is given as above 1 µg/mL. The “MIC Vibrio aesturianus” value in the series on Vibrio aesturianus (setting [7]) is above 1 µg/mL.
Regarding `COC1=C(Br)[C@H](O)[C@@]2(C=C1Br)CC(C(=O)NCCC(O)CNC(=O)C1=NO[C@]3(C=C(Br)C(OC)=C(Br)[C@@H]3O)C1)=NO2` (stereo partly drawn) [11-hydroxyaerothionin (15), 11-hydroxy-aerothionin], the IC50 in series [1] (setting [3]) worked out at 10 ± 0.3 µM. Also, in the series with Halomonas aquamarina (setting [4]), the “MIC Halomonas aquamarina” value was 0,01 µg/mL. Further, the “MIC Escherichia coli” value against Escherichia coli (setting [7]) was above 1 µg/mL. Further, in the series with Roseobacter littoralis (setting [4]), the “MIC Roseobacter littoralis” value is recorded as above 1 µg/mL. Also, the “MIC Vibrio aesturianus” value in the series with Vibrio aesturianus (setting [7]) is above 1 µg/mL.
For the compound `COC1=C(Br)[C@H](O)[C@@]2(C=C1Br)CC(C(=O)NC[C@@H](O)c1cc(Br)c(OC[C@H](O)CNC(=O)/C(Cc3cc(Br)c(OC)c(Br)c3O)=N/O)c(Br)c1)=NO2` [suberein-2 (3), suberein-2], the IC50 in series [1] (setting [3]) is above 10 µM. Also, the MIC in the series with Halomonas aquamarina (setting [4]) is above 1 µM; in the series with Escherichia coli (setting [5]) it was 0.01 µM; in the series on Escherichia coli (the lowest concentration tested, read-out: MIC against E. coli), 0.01 µg/mL; with Roseobacter littoralis (setting [4]), above 1 µM; in the series with Vibrio aesturianus (setting [6]) it was 0.01 µM; in the series with Vibrio aesturianus (the lowest concentration tested, read-out: MIC against V. aesturianus) it was 0.01 µg/mL.
Turning to `COC1=C(Br)[C@H](O)[C@@]2(C=C1Br)CC(C(=O)NCCCOc1c(Br)cc(C(O)CNC(=O)C3=NO[C@]4(C=C(Br)C(OC)=C(Br)[C@@H]4O)C3)cc1Br)=NO2` (stereo partly drawn) [11-deoxyfistularin-3 (13), 11-deoxyfistularin-3], the 50% inhibitory concentration (IC50) in series [1] (setting [3]) was above 10 µM. Moreover, in the series with Halomonas aquamarina (setting [4]), the “MIC Halomonas aquamarina” value was 0,01 µg/mL. The “MIC toward Halomonas aquamarina” value in the series with Halomonas aquamarina is recorded as 0.01 µg/mL (≈ 0.00911 µM). Moreover, the “MIC Escherichia coli” value against Escherichia coli (setting [7]) was above 1 µg/mL. Further, the “MIC Roseobacter littoralis” value against Roseobacter littoralis (setting [4]) is recorded as above 1 µg/mL. Further, the “MIC Vibrio aesturianus” value against Vibrio aesturianus (setting [7]) was above 1 µg/mL.
As for `COC1=C(Br)C(O)C2(C=C1Br)CC(C(=O)NCCCOc1c(Br)cc(CCNC(=O)C3=NOC4(C=C(Br)C(OC)=C(Br)C4O)C3)cc1Br)=NO2` (stereo not drawn) [11,17-dideoxyfistularin (14), 11,17-dideoxyfistularin-3], the half-maximal inhibitory concentration (IC50) in series [1] (setting [3]) was 10 ± 0.3 µM. The “MIC Halomonas aquamarina” value in the series with Halomonas aquamarina (setting [4]) is listed as 0,01 µg/mL. Besides, in the series on Halomonas aquamarina, the “MIC toward Halomonas aquamarina” value is 0.01 µg/mL (≈ 0.00924 µM). Further, the “DNMT1 activity, percentage of control” value on DNMT1 is given as “statistically significant decrease”. In addition, the “MIC Escherichia coli” value in the series with Escherichia coli (setting [7]) is above 1 µg/mL. In the series on Roseobacter littoralis (setting [4]), the “MIC Roseobacter littoralis” value was above 1 µg/mL. The “MIC Vibrio aesturianus” value against Vibrio aesturianus (setting [7]) was above 1 µg/mL.
